The source of these data is US4544662A, “1'-Substituted-spiro[oxazolidine-5-3'-indoline]-2,2', 4-trione derivatives” (Imperial Chemical Industries, priority 1982, dated 1985).

This assay has as its target T1, aldose reductase (Bos taurus, UniProt P16116).
T1 construct: purified aldose reductase is isolated in known manner from bovine lenses; from tissue; host or cells: bovine lens
Kind of assay: in vitro inhibition of purified aldose reductase isolated from bovine lenses (spectrophotometric). Conditions: purified bovine lens aldose reductase; reduction of glucose to sorbitol; read-out: IC50 (concentration necessary to produce 50% inhibition of enzymic activity). Format: biochemical. Here is the method:
Thus, purified aldose reductase is isolated in known manner from bovine lenses. The percentage inhibition of this enzyme's ability in vitro to reduce aldoses to polyhydric alcohols, and particularly to reduce glucose to sorbitol, caused by a test compound is then determined using standard spectrophotometric methods.

pIC50: −log10 of the molar value.

With `Cc1cccc2c1N(Cc1ccc(Br)cc1F)C(=O)C21OC(=O)NC1=O` (centres unmarked) [Example 6, 1'-(4-bromo-2-fluorobenzyl)-7'-methylspiro[oxazolidine-5,3'-indoline]-2,2',4-trione], the pIC50 was 7.70.

On to `Cc1cc(Cl)cc2c1N(Cc1ccc(Cl)c(Cl)c1)C(=O)C21OC(=O)NC1=O` (centres unmarked) [Example 7, 1'-(3,4-dichlorobenzyl)-5'-chloro-7'-methylspiro[oxazolidine-5,3'-indoline]-2,2',4-trione], for which the pIC50 is 7.60.
